Like-named read-outs stand apart in the source and are kept apart here.
Columns and labels:
[1] = test system: human melanoma cell line (A375); test: MTT cell viability, melanoma cell line A375; assay type: cell-based; conditions: 24 h incubation
Method: (§1) The MTT assay, which measures the activity of mitochondrial metabolism, was used for the determination of the influence of alkaloid standards on cancer cell viability.
(§2) For the evaluation of the effect of Berberis species, extracts against normal human skin fibroblast cells (WS1) were used. Both cell lines were received from the American Type Culture Collection (ATCC; Manassas, VA, USA). A375 and WS1 cells were cultured in Dulbecco’s Modified Eagle’s Medium (DMEM) (Sigma Aldrich, St. Louis, MO, USA). The procedure used in investigations of cell viability was described previously. Inactivated fetal bovine serum, penicillin, and streptomycin were added to cells maintained in a CO2 atmosphere at 37 °C. The suspension of cells was applied to a 96-well plate and incubated for 24 h. Next, the medium was removed from the wells, and Berberis species extracts or alkaloid standards were added to the wells. After incubation, MTT working solution was added to each well, and the plate was again incubated for 3 h. Subsequently, an SDS solution was added, and the concentration of the dissolved formazan was measured (for details, see Section S3. Procedure for investigation of cell viability). For the calculation of IC50 values obtained for the plant extracts and alkaloid standards, the IC50 calculator (https://www.aatbio.com/tools/ic50-calculator, accessed on 16 January 2024) was used.
S1. […]

[2] = test system: human skin fibroblasts (WS1 cell line); test: MTT cell viability, skin fibroblasts WS1; assay type: cell-based
Method: as §1, §2
S1. […]

[3] = ref PubChem; cited from earlier work
butyrylcholinesterase [4] = target: T1, butyrylcholinesterase (Homo sapiens, UniProt P06276); conditions: read-out: IC50 butyrylcholinesterase; alkaloids isolated from Berberis vulgaris root bark; cited from earlier work
T1 construct: purchased Sigma-Aldrich (St. Louis, MO, USA)
T1 sequence (P06276 29-602): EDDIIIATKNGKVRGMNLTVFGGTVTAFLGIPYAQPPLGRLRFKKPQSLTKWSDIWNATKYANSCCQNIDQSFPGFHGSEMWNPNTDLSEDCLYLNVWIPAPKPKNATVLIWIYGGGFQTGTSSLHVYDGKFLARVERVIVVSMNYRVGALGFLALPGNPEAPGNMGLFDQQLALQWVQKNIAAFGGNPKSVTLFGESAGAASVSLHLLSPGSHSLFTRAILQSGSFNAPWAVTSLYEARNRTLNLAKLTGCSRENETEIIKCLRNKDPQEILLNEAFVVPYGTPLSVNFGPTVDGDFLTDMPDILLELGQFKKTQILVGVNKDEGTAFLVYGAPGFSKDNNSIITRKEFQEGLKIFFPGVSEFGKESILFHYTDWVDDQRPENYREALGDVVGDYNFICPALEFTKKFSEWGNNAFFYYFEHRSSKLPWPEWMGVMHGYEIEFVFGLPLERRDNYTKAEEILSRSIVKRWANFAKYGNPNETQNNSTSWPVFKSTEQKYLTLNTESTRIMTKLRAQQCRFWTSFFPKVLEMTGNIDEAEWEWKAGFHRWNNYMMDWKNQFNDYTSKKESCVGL

[5] = test system: leukemic (Jurkat, MOLT-4), colon (HT-29), cervix (HeLa), breast (MCF-7) cancer cells; conditions: MOLT-4, HT-29, HeLa, read-out: IC50 values, proliferation and viability; cited from earlier work
butyrylcholinesterase [6] = target: T1, butyrylcholinesterase; test: Butyrylcholinesterase inhibition, Ellman method with HPLC-DAD; assay type: biochemical; conditions: alkaloid standards; 15 min at 37 °C, pH 7.8
acetylcholinesterase [7] = target: T2, acetylcholinesterase (Homo sapiens, UniProt P22303); test: Kinetic study of acetylcholinesterase inhibition (Lineweaver-Burk plots and replots); assay type: biochemical; conditions: for type of acetylcholinesterase inhibition: Lineweaver-Burk plots
T2 construct: purchased Sigma-Aldrich (St. Louis, MO, USA)
T2 sequence (P22303 32-614, species assumed): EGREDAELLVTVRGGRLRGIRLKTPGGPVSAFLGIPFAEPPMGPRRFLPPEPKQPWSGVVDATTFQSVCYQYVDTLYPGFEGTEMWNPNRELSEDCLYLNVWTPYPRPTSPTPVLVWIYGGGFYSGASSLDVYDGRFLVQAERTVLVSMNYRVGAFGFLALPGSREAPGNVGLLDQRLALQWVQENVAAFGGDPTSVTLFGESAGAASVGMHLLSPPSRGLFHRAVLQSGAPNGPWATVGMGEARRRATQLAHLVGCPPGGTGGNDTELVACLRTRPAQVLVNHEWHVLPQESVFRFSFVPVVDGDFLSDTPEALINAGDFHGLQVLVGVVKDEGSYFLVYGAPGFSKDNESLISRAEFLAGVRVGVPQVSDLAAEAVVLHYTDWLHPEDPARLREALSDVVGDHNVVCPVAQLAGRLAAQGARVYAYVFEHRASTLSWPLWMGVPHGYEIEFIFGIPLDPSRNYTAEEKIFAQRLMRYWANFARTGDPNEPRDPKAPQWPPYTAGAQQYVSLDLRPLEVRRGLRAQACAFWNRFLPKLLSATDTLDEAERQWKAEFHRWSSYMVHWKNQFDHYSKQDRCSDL
Method: Lineweaver–Burk and Dixon plots were used for the determination of the type of inhibition and inhibition constants (Ki value) of these alkaloids. […] The Ki value was estimated from the replots of the slope of the individual Lineweaver–Burk plots versus the inhibitor concentrations (Figure 5B). […] The type of acetylcholinesterase inhibition and Ki value was determined for palmatine by the same method.

acetylcholinesterase [8] = target: T2, acetylcholinesterase; conditions: previously reported; cited from earlier work
butyrylcholinesterase [9] = target: T1, butyrylcholinesterase; conditions: cited from earlier work
acetylcholinesterase [10] = target: T2, acetylcholinesterase; assay type: biochemical; conditions: alkaloid standards; 15 min at 37 °C, pH 7.8
Method: (§3) All experiments were repeated three times.
S1. Samples preparation for determination of acetylcholinesterase inhibitory activity A stock solutions of reagents were prepared by dissolving of acetylcholinesterase at con-centrations 200 U/mL or 2 U/mL, acetylthiocholine iodide at concentration 0.0125 M and 5′- dithiobis-(2-nitrobenzoic acid) at concentration 0.00167 M in phosphate buffer at pH 7.8.
Samples for determination of acetylcholinesterase inhibitory activity were obtained by mixing of 50 µL of acetylthiocholine iodide, 50 µL of 5′-dithiobis-(2-nitrobenzoic acid), 50 µL of […]
as §3
All experiments were performed in triplicates.

acetylcholinesterase [11] = target: T2, acetylcholinesterase; conditions: cited from earlier work

Compound | Hydrogen bond acceptor count [3] | Hydrogen bond donor count [3] | Log P [3] | Polar surface area [3] [Å²] | further results
N.N.[Cl][Pt][Cl] [Cisplatin, cisplatin] | – | – | – | – | IC50 A375 [1]: 23.8 µg/mL; IC50 WS1 ([2]; human skin fibroblast cell line WS1, MTT, 24 h incubation): 44.07 µg/mL
COc1ccc2c(c[n+](C)c3c4cc5c(cc4ccc23)OCO5)c1OC [Chelerythrine, chelerythrine] | 4 | 0 | 4.6 | 40.8 | –
C[n+]1cc2c3c(ccc2c2ccc4cc5c(cc4c21)OCO5)OCO3 [Sanguinarine, sanguinarine] | 4 | 0 | 4.4 | 40.8 | –
COc1cc2c3cc1Oc1c(O)c(OC)cc4c1[C@H](Cc1ccc(cc1)Oc1cc(ccc1O)C[C@H]3N(C)CC2)N(C)CC4 [aromoline] | – | – | – | – | IC50 (butyrylcholinesterase [4]): 0.82 µM
Bersavine | – | – | – | – | IC50 [5]: 8.1 to 11 µM
CN1CCc2cc3c(cc2C(=O)Cc2ccc4c(c2C1)OCO4)OCO3 [Protopine, protopine] | 6 | 0 | 2.8 | 57.2 | –
COc1cc2c(cc1OC)-c1cc3ccc(OC)c(OC)c3c[n+]1CC2 [Palmatine, palmatine] | 4 | 0 | 3.7 | 40.8 | IC50 (butyrylcholinesterase [6]): 189 ± 42.5 µM; IC50 Values Butyrylcholinesterase (butyrylcholinesterase [6]): 66.74 µg/mL; type of acetylcholinesterase inhibition (acetylcholinesterase [7]): mixed-type; Ki (acetylcholinesterase [7]; replot of Lineweaver-Burk slopes vs inhibitor concentration, substrate acetylthiocholine iodide): 17 µM; mode of acetylcholinesterase inhibition (acetylcholinesterase [8]): mixed mode; IC50 butyrylcholinesterase (butyrylcholinesterase [9]): 116.7 µg/mL; IC50 (acetylcholinesterase [10]): 29.2 ± 1.59 µM; IC50 Values Acetylcholinesterase (acetylcholinesterase [10]): 10.27 µg/mL; IC50 acetylcholinesterase (acetylcholinesterase [11]): 7.4 µg/mL
COc1ccc2cc3[n+](cc2c1OC)CCc1cc2c(cc1-3)OCO2 [Berberine, berberine] | 4 | 0 | 3.6 | 40.8 | type of acetylcholinesterase inhibition (acetylcholinesterase [7]): noncompetitive; mode of acetylcholinesterase inhibition (acetylcholinesterase [8]): non-competitive; IC50 ([2]; Homo sapiens, WS1, 24 h, read-out: IC50 WS1): 95.3 µg/mL

Source: PMC10933966, “In Vitro and In Silico of Cholinesterases Inhibition and In Vitro and In Vivo Anti-Melanoma Activity Investigations of Extracts Obtained from Selected Berberis Species” (Molecules, 2024)
